The results in this text go back to patent publication US20190322676A1, “CERAMIDE GALACTOSYLTRANSFERASE INHIBITORS FOR THE TREATMENT OF DISEASE” (BioMarin Pharmaceutical Inc., priority 2016, published 2019).

Structures are written as SMILES.

This assay deals with T1, human CGT (ceramide galactosyltransferase), CHO/CGT lysate (Homo sapiens, UniProt Q16880).
T1 construct: Full-length human CGT cDNA was cloned into the BamH1/Xho1 site of pcDNA3.1 (+); expressed in transfected cells; host or cells: Chinese hamster ovary (CHO) cells; lysate prepared with M-PER
T1 sequence (Q16880 21-541): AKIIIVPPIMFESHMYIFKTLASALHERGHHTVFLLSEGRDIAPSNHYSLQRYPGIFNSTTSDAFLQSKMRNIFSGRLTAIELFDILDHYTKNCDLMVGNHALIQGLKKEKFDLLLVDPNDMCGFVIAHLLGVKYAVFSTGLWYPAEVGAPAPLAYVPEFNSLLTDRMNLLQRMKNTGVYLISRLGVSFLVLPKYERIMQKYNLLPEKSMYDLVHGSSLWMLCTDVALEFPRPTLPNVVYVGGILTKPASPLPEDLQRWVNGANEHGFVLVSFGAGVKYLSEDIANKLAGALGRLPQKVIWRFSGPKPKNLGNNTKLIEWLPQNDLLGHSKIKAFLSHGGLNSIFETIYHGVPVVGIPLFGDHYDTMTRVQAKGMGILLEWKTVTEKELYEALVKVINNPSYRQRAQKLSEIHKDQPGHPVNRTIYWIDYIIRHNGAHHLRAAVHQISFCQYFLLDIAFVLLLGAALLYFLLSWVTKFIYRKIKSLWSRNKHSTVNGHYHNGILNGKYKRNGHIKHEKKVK
Briefly: CGT enzyme assay, RapidFire/MS/MS readout (Table 1 ranges with one asterisk *). The conditions noted are these: RapidFire method (range with one asterisk *). The class given is biochemical. The method, boiled down:
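IC50s come from variable-slope dose-response fits of internal-standard-normalized C6-NBD-dihydro-galactosylceramide, measured by RapidFire/MS/MS (ESI negative). Reactions: 1 h, 37 °C, human CGT-expressing CHO lysate (4 μg), 0.001–50 μM compound, 10 μM NBD-dihydro-ceramide, 17.5 μM UDP-galactose, 0.5% DMSO, pH 7.2; 0.01% Tween 80 added for ** values.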
In turn, `NC1CC2CCC(C1)N2C(=O)[C@@H](NS(=O)(=O)c1ccc2c(cnn2CC2CCCC2)c1)C(F)(F)c1ccc(C(F)(F)F)cc1` (stereo partly drawn) [Compound 92-1, N-((2R)-3-(3-amino-8-azabicyclo[3.2.1]octan-8-yl)-1,1-difluoro-3-oxo-1-(4-(trifluoromethyl)phenyl)propan-2-yl)-1-(cyclopentylmethyl)-1H-indazole-5-sulfonamide] registered an IC50 of less than 1 µM.
Take `NC1CC2CCC(C1)N2C(=O)[C@H](NS(=O)(=O)c1ccc2c(cnn2CC2CCCC2)c1)C(F)(F)c1ccc(C(F)(F)F)cc1` (stereo partly drawn) [Compound 92-2, N-((2S)-3-(3-amino-8-azabicyclo[3.2.1]octan-8-yl)-1,1-difluoro-3-oxo-1-(4-(trifluoromethyl)phenyl)propan-2-yl)-1-(cyclopentylmethyl)-1H-indazole-5-sulfonamide]: the IC50 was in the range of 10 to 30 µM.
Take `NC1CCN(C(=O)[C@@H](NS(=O)(=O)c2ccc3c(cnn3CC3CCCC3)c2)C(F)(F)c2ccc(C(F)(F)F)cc2)CC1` [Compound 93-1, (R)—N-(3-(4-aminopiperidin-1-yl)-1,1-difluoro-3-oxo-1-(4-(trifluoromethyl)phenyl)propan-2-yl)-1-(cyclopentylmethyl)-1H-indazole-5-sulfonamide]: the IC50 lay within 1 to 10 µM.
Compound `NC1CCN(C(=O)[C@H](NS(=O)(=O)c2ccc3c(cnn3CC3CCCC3)c2)C(F)(F)c2ccc(C(F)(F)F)cc2)CC1` [Compound 93-2, (S)—N-(3-(4-aminopiperidin-1-yl)-1,1-difluoro-3-oxo-1-(4-(trifluoromethyl)phenyl)propan-2-yl)-1-(cyclopentylmethyl)-1H-indazole-5-sulfonamide] registered an IC50 of 30 to 100 µM.
Compound `NC1CC2CCC(C1)N2C(=O)[C@@H](NS(=O)(=O)c1ccc2c(cnn2CC2CCCC2)c1)C(F)(F)c1ccc(-c2ccc(Cl)cc2)cc1` (stereo partly drawn) [Compound 94-1, N-((2R)-3-(3-amino-8-azabicyclo[3.2.1]octan-8-yl)-1-(4′-chloro-[1,1′-biphenyl]-4-yl)-1,1-difluoro-3-oxopropan-2-yl)-1-(cyclopentylmethyl)-1H-indazole-5-sulfonamide] had an IC50 of 1 to 10 µM.
`NC1CC2CCC(C1)N2C(=O)[C@H](NS(=O)(=O)c1ccc2c(cnn2CC2CCCC2)c1)C(F)(F)c1ccc(-c2ccc(Cl)cc2)cc1` (stereo partly drawn) [Compound 94-2, N-((2S)-3-(3-amino-8-azabicyclo[3.2.1]octan-8-yl)-1-(4′-chloro-[1,1′-biphenyl]-4-yl)-1,1-difluoro-3-oxopropan-2-yl)-1-(cyclopentylmethyl)-1H-indazole-5-sulfonamide] came in with an IC50 of 10 to 30 µM.
The compound `NC1CCN(C(=O)[C@@H](NS(=O)(=O)c2ccc3c(cnn3CC3CCCC3)c2)C(F)(F)c2ccc(-c3ccc(Cl)cc3)cc2)CC1` [Compound 95-1, (R)—N-(3-(4-aminopiperidin-1-yl)-1-(4′-chloro-[1,1′-biphenyl]-4-yl)-1,1-difluoro-3-oxopropan-2-yl)-1-(cyclopentylmethyl)-1H-indazole-5-sulfonamide] yielded an IC50 of less than 1 µM.
For `NC1CCN(C(=O)[C@H](NS(=O)(=O)c2ccc3c(cnn3CC3CCCC3)c2)C(F)(F)c2ccc(-c3ccc(Cl)cc3)cc2)CC1` [Compound 95-2, (S)—N-(3-(4-aminopiperidin-1-yl)-1-(4′-chloro-[1,1′-biphenyl]-4-yl)-1,1-difluoro-3-oxopropan-2-yl)-1-(cyclopentylmethyl)-1H-indazole-5-sulfonamide] the value was 10 to 30 µM; for `NC1CCN(C(=O)[C@@H](NS(=O)(=O)c2ccc3cc(OC4CCCC4)ccc3c2)C(F)(F)c2ccc(OC3CCCCC3)cc2)CC1` [Compound 97-1, (R)—N-(3-(4-aminopiperidin-1-yl)-1-(4-(cyclohexyloxy)phenyl)-1,1-difluoro-3-oxopropan-2-yl)-6-(cyclopentyloxy)naphthalene-2-sulfonamide], 1 to 10 µM.
In the case of `NC1CCN(C(=O)[C@H](NS(=O)(=O)c2ccc3cc(OC4CCCC4)ccc3c2)C(F)(F)c2ccc(OC3CCCCC3)cc2)CC1` [Compound 97-2, (S)—N-(3-(4-aminopiperidin-1-yl)-1-(4-(cyclohexyloxy)phenyl)-1,1-difluoro-3-oxopropan-2-yl)-6-(cyclopentyloxy)naphthalene-2-sulfonamide], the IC50 fell in the range of 1 to 10 µM.
Turning to `NC1CCN(C(=O)[C@@H](NS(=O)(=O)c2ccc3cc(OC4CCCC4)ccc3c2)C(F)(F)c2ccc(Cl)cc2)CC1` [Compound 98-1, (R)—N-(3-(4-aminopiperidin-1-yl)-1-(4-chlorophenyl)-1,1-difluoro-3-oxopropan-2-yl)-6-(cyclopentyloxy)naphthalene-2-sulfonamide], the IC50 is 1 to 10 µM.
Turning to `NC1CCN(C(=O)[C@H](NS(=O)(=O)c2ccc3cc(OC4CCCC4)ccc3c2)C(F)(F)c2ccc(Cl)cc2)CC1` [Compound 98-2, (S)—N-(3-(4-aminopiperidin-1-yl)-1-(4-chlorophenyl)-1,1-difluoro-3-oxopropan-2-yl)-6-(cyclopentyloxy)naphthalene-2-sulfonamide], the IC50 was in the range of 10 to 30 µM.
As for `NC1CCN(C(=O)[C@@H](NS(=O)(=O)c2ccc3c(cnn3CC3CCCC3)c2)C(F)(F)c2ccc(Cl)cc2)CC1` [Compound 99-1, (R)—N-(3-(4-aminopiperidin-1-yl)-1-(4-chlorophenyl)-1,1-difluoro-3-oxopropan-2-yl)-1-(cyclopentylmethyl)-1H-indazole-5-sulfonamide], the IC50 was in the range of 1 to 10 µM.
For `NC1CCN(C(=O)[C@H](NS(=O)(=O)c2ccc3c(cnn3CC3CCCC3)c2)C(F)(F)c2ccc(Cl)cc2)CC1` [Compound 99-2, (S)—N-(3-(4-aminopiperidin-1-yl)-1-(4-chlorophenyl)-1,1-difluoro-3-oxopropan-2-yl)-1-(cyclopentylmethyl)-1H-indazole-5-sulfonamide] the value was 30 to 100 µM; for `CN([C@H](C(=O)N1CCC(N)CC1)C(F)(F)c1ccc(Cl)cc1)S(=O)(=O)c1ccc2cc(OC3CCCC3)ccc2c1` [Compound 100-1, (R)—N-(3-(4-aminopiperidin-1-yl)-1-(4-chlorophenyl)-1,1-difluoro-3-oxopropan-2-yl)-6-(cyclopentyloxy)-N-methylnaphthalene-2-sulfonamide], less than 1 µM.
The figure for `CN([C@@H](C(=O)N1CCC(N)CC1)C(F)(F)c1ccc(Cl)cc1)S(=O)(=O)c1ccc2cc(OC3CCCC3)ccc2c1` [Compound 100-2, (S)—N-(3-(4-aminopiperidin-1-yl)-1-(4-chlorophenyl)-1,1-difluoro-3-oxopropan-2-yl)-6-(cyclopentyloxy)-N-methylnaphthalene-2-sulfonamide] is 10 to 30 µM.
For the compound `NC1CC2CCC(C1)N2C(=O)[C@@H](NS(=O)(=O)c1ccc2cc(OC3CCCC3)ccc2c1)C(F)(F)c1ccc(-c2ccc(Cl)s2)cc1` (stereo partly drawn) [Compound 101-1, N-((2R)-3-(3-amino-8-azabicyclo[3.2.1]octan-8-yl)-1-(4-(5-chlorothiophen-2-yl)phenyl)-1,1-difluoro-3-oxopropan-2-yl)-6-(cyclopentyloxy)naphthalene-2-sulfonamide], the IC50 was less than 1 µM.
The figure for `NC1CC2CCC(C1)N2C(=O)[C@H](NS(=O)(=O)c1ccc2cc(OC3CCCC3)ccc2c1)C(F)(F)c1ccc(-c2ccc(Cl)s2)cc1` (stereo partly drawn) [Compound 101-2, N-((2S)-3-(3-amino-8-azabicyclo[3.2.1]octan-8-yl)-1-(4-(5-chlorothiophen-2-yl)phenyl)-1,1-difluoro-3-oxopropan-2-yl)-6-(cyclopentyloxy)naphthalene-2-sulfonamide] is 1 to 10 µM; for `NC1CC2CCC(C1)N2C(=O)[C@@H](NS(=O)(=O)c1ccc2cc(OC3CCCC3)ccc2c1)C(F)(F)c1ccc(OC2CCCCC2)cc1` (stereo partly drawn) [Compound 102-1, N-((2R)-3-(3-amino-8-azabicyclo[3.2.1]octan-8-yl)-1-(4-(cyclohexyloxy)phenyl)-1,1-difluoro-3-oxopropan-2-yl)-6-(cyclopentyloxy) naphthalene-2-sulfonamide] it is less than 1 µM.
The figure for `NC1CC2CCC(C1)N2C(=O)[C@H](NS(=O)(=O)c1ccc2cc(OC3CCCC3)ccc2c1)C(F)(F)c1ccc(OC2CCCCC2)cc1` (stereo partly drawn) [Compound 102-2, N-((2S)-3-(3-amino-8-azabicyclo[3.2.1]octan-8-yl)-1-(4-(cyclohexyloxy)phenyl)-1,1-difluoro-3-oxopropan-2-yl)-6-(cyclopentyloxy)naphthalene-2-sulfonamide] is 1 to 10 µM.
On to `NC1CCN(C(=O)[C@@H](NS(=O)(=O)c2ccc(OCC3CCCCC3)cc2)C(F)(F)c2ccc(OC3CCCCC3)cc2)CC1` [Compound 103-1, (R)—N-(3-(4-aminopiperidin-1-yl)-1-(4-(cyclohexyloxy)phenyl)-1,1-difluoro-3-oxopropan-2-yl)-4-(cyclohexylmethoxy)benzenesulfonamide], for which the IC50 was less than 1 µM.
The figure for `NC1CCN(C(=O)[C@H](NS(=O)(=O)c2ccc(OCC3CCCCC3)cc2)C(F)(F)c2ccc(OC3CCCCC3)cc2)CC1` [Compound 103-2, (S)—N-(3-(4-aminopiperidin-1-yl)-1-(4-(cyclohexyloxy)phenyl)-1,1-difluoro-3-oxopropan-2-yl)-4-(cyclohexylmethoxy)benzenesulfonamide] is 30 to 100 µM.
